Reference: paper PMC10290391, “Targeted degradation of ⍺-synuclein aggregates in Parkinson’s disease using the AUTOTAC technology” (Molecular Neurodegeneration, 2023)
Converted amounts (≈) assume the structure as drawn. Each block holds one compound with its values, some of them ahead of it.

Columns and labels:
[1] = target: T1, p62 and α-syn aggregates (Homo sapiens, UniProt P37840+Q13501); test: Proximity ligation assay (PLA) of p62 and α-syn in HEK293A cells; type: cell-based; conditions: α-syn PFF-transduced cells; 1 μM, 6 h
T1 construct: Recombinant human α-syn (1–140) were obtained from NKMAX (SNA2001L); endogenous in cells; host or cells: HEK293A cells transduced with h-α-syn PFFs
Experimental: Proximity ligation assays were conducted using a PLA kit (Sigma-Aldrich) according to the manufacturer’s protocol. 293A Cells were seeded on coverslips and cultured for 24 h. After fixation with 4% PFA, the cells were permeabilized with 0.1% Triton X-100. The cells were incubated with antibodies for p62 (Abcam; ab56319) and alpha-synuclein aggregates (Abcam; ab209538) overnight at 4 °C. After washing with PLA washing buffer, the cells were hybridized, ligated and amplified by rolling circle. Coverslips were mounted on slides using mounting medium containing DAPI, and the images were captured by confocal microscopy (Zeiss).

[2] = system: p62; test: p62 self-oligomerization and LC3 synthesis/lipidation by ATLs (in vitro p62 aggregation assay, rat cortex primary neurons); type: cell-based; conditions: ATL7, ATL13, ATL21 compared; 1 μM, 24 h in neurons, 1 mM in lysates
[3] = system: HEK293A cells transduced with h-α-syn PFFs; test: Immunocytochemistry in HEK293A cells transduced with h-α-syn PFFs; type: cell-based, human; conditions: 1 μM, 24 h
Experimental: Recombinant human α-syn (1–140) were obtained from NKMAX (SNA2001L). In vitro fibrillization was performed by diluting recombinant α-syn monomers to 1 mg/mL in sterile PBS, then incubating at 37 °C with constant agitation at 1,000 rpm for seven days. The fibrillization was verified by thioflavin T and sedimentation assays. The ability to form phospho-α-syn (S129) was also assessed by immunocytochemistry. In addition, to determine whether the generated PFFs act as seeds to accumulate endogenous α-syn, an adenovirus that expresses c-Myc-His-tagged human α-syn (gifted from lab of S.J.L) was used to infect cultured cells at an MOI of 10, followed by a fractionation assay. The administration of PFFs into 293A cells was done with protein delivery reagent (BioPORTER QuikEase Protein Delivery Kit, Sigma) following the provider’s instruction. The mouse α-syn PFFs were obtained from StressMarq (SPR-324). Prior to treatment, PFFs were sonicated at 20% amplitude, 1 s pulse on and off for 30 s (SONICS Vibra Cell sonicator, Merck Z412619). For cells, α-syn monomers and PFFs were transduced at 1 µg/mL.
Cells were fixed with 4% paraformaldehyde (PFA) for 20 min at room temperature, followed by permeabilization with 0.1% Triton X-100 buffer for 15 min. The cells were blocked with 2% bovine serum albumin (BSA) in PBS for 1 h at room temperature. Then, the cells were incubated with primary antibodies diluted in the blocking buffer overnight at 4 °C. After washing with PBS, the slides were incubated with AlexaFluor-conjugated secondary antibodies for 1 h at room temperature. After mounting the slides with mounting solution containing DAPI, the images were captured on an LSM700 confocal microscopy (Carl Zeiss).

[4] = Pharmacokinetics of ATL compounds after oral administration in ICR male mice; type: in vivo; conditions: 5 mg/kg oral
Experimental: Supplementary file 13024_2023_630_MOESM1_ESM.eps: Additional file 1: Supplementary figure 1. Drug profiles of ATL and Autotac compounds. A, drug profiles of ATL compounds. Tissue concentrations and oral bioavailability were measured in ICR male mice upon 5 mg/kg oral administration of each ATL compound. B, structures of ATC161~164. C, Pharmacokinetic study of ATC161 conducted in male ICR mice otherwise indicated. M.W. represents molecular weight. The plasma exposure and the half-life were determined upon either POor IPATC161 administration. The drug tissue exposure was determined in Tau301L BiFC mice. IV refers to intravenous injection.

[5] = Plasma stability; type: in vitro ADME; conditions: after 120 min
[6] = Solubility; type: physicochemical; conditions: pH 7.4
[7] = target: Tyr residues of α-syn; set-up: method as in PMID 15096521; conditions: cited from earlier work
[8] = target: α-syn amyloids; set-up: method as in PMID 17597573; conditions: cited from earlier work

AUClast in brain [4]: 722.9 ng·h/g | Kp ([4]; mouse, brain and plasma, brain vs plasma AUClast, read-out: B/P ratio): ~3
Compound: OCCNCc1ccc(OCc2ccccc2)c(OCCCc2ccccc2)c1 [ATL7, 2-((4-(benzyloxy)-3-(3-phenylpropoxy)benzyl)amino)ethan-1-ol]
interaction between p62 and α-syn aggregates (PLA puncta) [1]: failed to enhance the interaction between p62 and α-syn aggregates | relative activity to induce p62 self-oligomerization and LC3 synthesis and lipidation [2]: highest activities | increase in number of p62+LC3+ colocalizing puncta [3]: approximately 81% | targeting of α-syn to LC3+ autophagic membranes ([3]; absence and presence of bafilomycin A1): did not show significant activities

plasma stability, remaining [5]: 96.3% | solubility [6]: 106 µg/mL (≈ 383 µM)
Compound: OCCNCc1cccc(OCc2ccc(F)cc2)c1 [ATL13, 2-((3-((4-fluorobenzyl)oxy)benzyl)amino)ethan-1-ol]

AUC(0-t) ([4]; mouse, plasma, read-out: oral bioavailability, AUClast): 2590 ng·h/mL
Compound: OCCNC[C@@H](O)COc1ccc(OCc2ccc(F)cc2)c(OCc2ccc(F)cc2)c1 [ATL21, (R)-1-(3,4-bis((4-fluorobenzyl)oxy)phenoxy)-3-((2hydroxyethyl)amino)propan-2-ol]

More lines, now with the values behind:

Compound: O=c1cc(-c2ccccc2)oc2cc(O)c(O)c(O)c12 [baicalein]
Kd [7]: 0.5 µM

Compound: Oc1ccc(/C=C/c2cc(O)cc(O)c2)cc1 [resveratrol]
Kd [8]: 36.8 µM
